In patent publication US8318731B2, “Pyrrolopyrimidines” (Janssen Pharmaceutica NV, priority 2007, dated 2012):

Assays:
[1] = target: T1, PLK4 (h) (Homo sapiens, UniProt O00444); test: PLK-4 human kinase scintillation proximity assay (SPA); format: biochemical; conditions: 1 μM ATP, 60 minutes at r.t., read-out: PLK4 pIC50 (converted)
T1 sequence (O00444 1-970): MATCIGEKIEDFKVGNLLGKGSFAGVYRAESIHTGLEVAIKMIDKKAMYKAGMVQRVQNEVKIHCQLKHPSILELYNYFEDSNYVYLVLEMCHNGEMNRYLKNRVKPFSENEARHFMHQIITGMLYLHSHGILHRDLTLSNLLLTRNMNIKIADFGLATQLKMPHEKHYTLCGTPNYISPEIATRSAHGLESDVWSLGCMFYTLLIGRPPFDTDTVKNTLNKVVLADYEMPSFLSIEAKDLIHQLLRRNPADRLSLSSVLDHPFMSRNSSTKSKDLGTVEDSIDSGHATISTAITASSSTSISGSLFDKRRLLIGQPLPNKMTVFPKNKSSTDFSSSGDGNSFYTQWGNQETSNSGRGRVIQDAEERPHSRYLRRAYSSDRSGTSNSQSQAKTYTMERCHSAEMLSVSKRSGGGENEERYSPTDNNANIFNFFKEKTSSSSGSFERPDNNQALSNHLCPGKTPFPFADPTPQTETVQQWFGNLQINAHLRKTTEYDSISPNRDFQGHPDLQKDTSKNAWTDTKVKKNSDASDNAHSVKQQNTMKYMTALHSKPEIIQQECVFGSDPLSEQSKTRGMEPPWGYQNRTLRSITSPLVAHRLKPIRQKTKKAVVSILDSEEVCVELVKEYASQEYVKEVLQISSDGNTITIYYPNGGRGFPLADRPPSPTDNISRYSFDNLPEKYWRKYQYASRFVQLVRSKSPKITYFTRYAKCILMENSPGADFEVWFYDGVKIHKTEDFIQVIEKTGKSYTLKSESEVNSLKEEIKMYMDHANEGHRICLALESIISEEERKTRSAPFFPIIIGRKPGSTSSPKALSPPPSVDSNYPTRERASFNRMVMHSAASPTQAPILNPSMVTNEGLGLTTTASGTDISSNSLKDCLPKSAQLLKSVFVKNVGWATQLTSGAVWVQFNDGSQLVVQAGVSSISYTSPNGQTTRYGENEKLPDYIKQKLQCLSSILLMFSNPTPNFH
Method in brief: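 Human PLK4 (19 μg/ml) reacted with 10 μM biotinylated peptide, 1 μM ATP plus 2 nM [γ-33P]ATP in HEPES pH 8.0 with MgCl2, NaCl, NaF and DTT for 60 min at r.t. After an EDTA stop, phosphorylated substrate was captured on streptavidin PVT SPA beads and scintillation imaged.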

[2] = test system: H1299; test: Cellular proliferation assay (Alamar blue), H1299; format: cell-based; conditions: 10% FCS, 72 h with compound, Alamar blue 4 h; for IC50: Homo sapiens, NCI-H1299, H1299 cells, read-out: pIC50 H1299 (converted)
Method in brief: (§1)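 Viable cell number is determined by Alamar blue conversion after cells are treated with compound for 72 hours, following 24 hours of growth without compound in 10% FCS. The effect is calculated against control cells.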

[3] = test system: PC3; test: Cellular proliferation assay (Alamar blue), PC3; format: cell-based; conditions: 10% FCS, 72 h with compound, Alamar blue 24 h; for IC50: Homo sapiens, PC-3, PC-3 cells, read-out: pIC50 PC-3 (converted)
Method in brief: (§2)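 Cells in 10% FCS (37° C., 5% CO2) were seeded 24 hours before a 72-hour compound exposure. Viable cells were measured by Alamar blue fluorescence (544 nm/590 nm) after dye incubation of 4 h (HCT-116), 6 h (U87-MG) or 24 h (PC3, A2780). Effect is relative to control cells.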

[4] = test system: HCT-116; test: Cellular proliferation assay (Alamar blue), HCT-116; format: cell-based; conditions: Homo sapiens; HCT-116 cells; 10% FCS; 72 h with compound; Alamar blue 4 h; read-out: pIC50 HCT-116 (converted)
Method in brief: as §2

[5] = test system: A2780; test: Cellular proliferation assay (Alamar blue), A2780; format: cell-based; conditions: 10% FCS, 72 h with compound, Alamar blue 24 h; for IC50: Homo sapiens, A2780, A2780 cells, read-out: pIC50 A2780 (converted)
Method in brief: as §2

[6] = test system: MDA-MB-231; test: Cellular proliferation assay (Alamar blue), MDA-MB-231; format: cell-based; conditions: 10% FCS, 72 h with compound, Alamar blue 24 h; for IC50: Homo sapiens, MDA-MB-231, MDA-MB-231 cells, read-out: pIC50 MDA/MB231 (converted)
Method in brief: as §1

[7] = test system: U87-MG; test: Cellular proliferation assay (Alamar blue), U87-MG; format: cell-based; conditions: Homo sapiens, U-87 MG; U87-MG cells; 10% FCS; 72 h with compound; Alamar blue 6 h; read-out: pIC50 U87MG (converted)
Method in brief: as §2

| melting point [°C] | IC50 [1] [nM] | IC50 [2] [nM] | IC50 [3] [nM] | IC50 [4] [nM] | IC50 [5] [nM] | IC50 [6] [nM] | IC50 [7] [nM] | pIC50 H1299 ([2]; H1299 cells) | pIC50 PC-3 ([3]; PC-3 cells) | pIC50 A2780 ([5]; A2780 cells) | pIC50 MDA/MB231 ([6]; MDA-MB-231 cells) | SMILES |
| --- | --- | --- | --- | --- | --- | --- | --- | --- | --- | --- | --- | --- |
| 222.2 | 50.1 | 2510 | 5010 | 1260 | 1260 | 6310 | 3980 |  |  |  |  | COc1ccc(OCCCOc2ccc3cc2OCC(=O)N(C)CCCN(C)Cc2c[nH]c4ncnc(c24)N3)cc1 [Compound 78] |
| 241 |  | ≥ 10000 | 1000 | 398 | 316 | 1000 | 501 |  |  |  |  | CN1CCCN(C)C(=O)COc2cc(ccc2OCC2CCN(Cc3ccccc3)CC2)Nc2ncnc3[nH]cc(c23)C1 [Compound 149] |
| 251 |  | > 10000 | > 10000 | > 10000 | 2510 | > 10000 | > 10000 |  |  |  |  | CCOCCOc1ccc2cc1OCC(=O)N(C)CCCN(C)Cc1c[nH]c3nc(C)nc(c13)N2 [Compound 147] |
| 265.3 | 200 | > 10000 | > 10000 | > 10000 | > 10000 | > 10000 |  |  |  |  |  | COc1ccc2cc1OCCCC(=O)N(C)CC1CN(Cc3c[nH]c4ncnc(c34)N2)C1 [Compound 73] |
| 201.4 |  |  |  |  |  |  |  |  |  |  |  | COCCOc1c(OC)cc2cc1OCC(=O)N(C)CCCN(C)Cc1c[nH]c3ncnc(c13)N2 [Compound 161] |
|  | 501 | 2000 | 3980 | 1580 | 2000 | 5010 | 2000 |  |  |  |  | CN1CCCN(C)C(=O)CCc2cccc(c2)Nc2ncnc3[nH]cc(c23)C1 [Compound 21] |
|  | 794 | > 10000 | > 10000 | > 10000 | > 10000 | > 10000 | > 10000 |  |  |  |  | CN1CCN(C)C(=O)CCCOc2cc(ccc2Cl)Nc2ncnc3[nH]cc(c23)C1 [Compound 42] |
|  | 1580 | 1000 | 3160 | 1260 | 1000 | 5010 | 1580 |  |  |  |  | CN1CC(=O)NCCOc2cccc(c2)Nc2ncnc3[nH]cc(c23)C1 [Compound 23] |
| 252.6 |  | ≥ 10000 | 5010 | 63.1 | 63.1 | 2510 |  |  |  |  |  | CN1CCCN(C)C(=O)COc2cc(ccc2OCCSc2ccc(Cl)cc2)Nc2ncnc3[nH]cc(c23)C1 [Compound 150] |
|  | 39.8 | 1260 | 2000 | 2000 | 794 | > 10000 | 2510 |  |  |  |  | CN1CCCN(C)C(=O)COc2cc(ccc2OC(F)F)Nc2ncnc3[nH]cc(c23)C1 [Compound 76] |
| 238.4 |  | 2000 | 3160 | 631 | 501 | 3160 | 1260 |  |  |  |  | CN1CCCN(C)C(=O)COc2cc(ccc2OCCNc2nccs2)Nc2ncnc3[nH]cc(c23)C1 [Compound 156] |
|  | 398 | 3980 | 3160 | 1260 | 794 | 3160 | 1580 |  |  |  |  | CN1CCCN(C)C(=O)COc2cc(ccc2OCCCN2CCOCC2)Nc2ncnc3[nH]cc(c23)C1 [Compound 137] |
| 270.9 | 200 |  |  |  |  |  |  |  |  |  |  | CN1CCCN(C)C(=O)COc2cc(ccc2OC2CCOCC2)Nc2ncnc3[nH]cc(c23)C1 [Compound 74] |
|  | 100 | > 10000 | > 10000 | > 10000 | > 10000 | > 10000 | > 10000 |  |  |  |  | COc1ccc2cc1OCC(=O)N(C)CCCN(Cc1ccccc1)Cc1c[nH]c3ncnc(c13)N2 [Compound 61] |
| 232.2 |  | 1260 | 3160 | 501 | 501 | 3160 | 1000 | 6.00 | 5.6 | 6.4 | 5.6 | CN1CCCN(C)C(=O)COc2cc(ccc2OCCN(C)c2nccs2)Nc2ncnc3[nH]cc(c23)C1 [Compound 157] |
|  | 251 | > 10000 | > 10000 | > 10000 | > 10000 | > 10000 | > 10000 |  |  |  |  | COc1ccc2cc1OCC(=O)N(C1CCCCC1)CCCN(C)Cc1c[nH]c3ncnc(c13)N2 [Compound 64] |
| 250.4 |  | 126 | 2510 | 63.1 | 31.6 | 2510 | 251 |  |  |  |  | COc1ccc(OCCOc2ccc3cc2OCC(=O)N(C)CCCN(C)Cc2c[nH]c4ncnc(c24)N3)cc1 [Compound 155] |
|  | 398 | > 10000 | 10000 | 3980 | 5010 | > 10000 | 10000 |  |  |  |  | CN1CCCN(C)C(=O)Cc2cccc(c2)Nc2ncnc3[nH]cc(c23)C1 [Compound 24] |
|  | 31.6 | 1000 | 1000 | 398 | 501 | 1000 | 794 |  |  |  |  | CN1CCCN(C)C(=O)COc2cccc(c2)Nc2ncnc3[nH]cc(c23)C1 [Compound 120] |
|  | > 10000 | > 10000 | > 10000 | > 10000 | > 10000 | > 10000 | > 10000 |  |  |  |  | COc1cc2cc(c1OC)CN(C)CC(=O)N(C)CCCc1c[nH]c3ncnc(c13)N2 [Compound 72] |
|  | 126 | > 10000 | > 10000 | > 10000 | > 10000 | > 10000 | > 10000 |  |  |  |  | COc1ccc2cc1OCCCCC(=O)N(C)CCCN(C)Cc1c[nH]c3ncnc(c13)N2 [Compound 16] |
|  | 200 | 3160 | 2510 | 1000 | 501 | 3980 | 1260 |  |  |  |  | CN1CCN(c2ccc3cc2OCC(=O)N(C)CCCN(C)Cc2c[nH]c4ncnc(c24)N3)CC1 [Compound 84] |

| SMILES | melting point [°C] | IC50 [1] [nM] | IC50 [2] [nM] | IC50 [3] [nM] | IC50 [4] [nM] | IC50 [5] [nM] | IC50 [6] [nM] | IC50 [7] [nM] | pIC50 H1299 ([2]; H1299 cells) | pIC50 PC-3 ([3]; PC-3 cells) | pIC50 A2780 ([5]; A2780 cells) | pIC50 MDA/MB231 ([6]; MDA-MB-231 cells) |
| --- | --- | --- | --- | --- | --- | --- | --- | --- | --- | --- | --- | --- |
| CN1CCN(C)C(=O)COc2cc(ccc2Cl)Nc2ncnc3[nH]cc(c23)C1 [Compound 98] |  | 100 | > 10000 | > 10000 | 5010 | > 10000 | > 10000 | 6310 |  |  |  |  |
| COc1ccc2cc1OCC(=O)N1CCC[C@H]1CN(C)CCCc1c[nH]c3ncnc(c13)N2 [Compound 27] |  | 6310 | > 10000 | > 10000 | > 10000 | > 10000 | > 10000 | > 10000 |  |  |  |  |
